From patent publication US20210147343A1 (priority 2018, published 2021)
Like-named read-outs stand apart in the source and are kept apart here.

Assays:
[1] = target: T1, mu opioid receptor (MOR) (Homo sapiens, UniProt P35372); test: MOR GTPγS agonist assay; format: biochemical; set-up: host or cells: CHO-K1
Text: Membranes obtained from the stable cell lines over-expressing MOR were subjected to GTPγS assay using SPA beads (Perkin Elmer, Cat #RPNQ0001).

[2] = target: T1, mu opioid receptor (MOR); test: MOR cAMP antagonist assay; format: cell-based; set-up: host or cells: CHO-K1
Text: MOR cAMP Antagonist Assay

[3] = target: T2, kappa opioid receptor (KOR) (Homo sapiens, UniProt P41145); test: cell-based; settings: after activation with dynorphin B
T2 construct: host or cells: CHO-K1
T2 sequence (P41145 whole entry): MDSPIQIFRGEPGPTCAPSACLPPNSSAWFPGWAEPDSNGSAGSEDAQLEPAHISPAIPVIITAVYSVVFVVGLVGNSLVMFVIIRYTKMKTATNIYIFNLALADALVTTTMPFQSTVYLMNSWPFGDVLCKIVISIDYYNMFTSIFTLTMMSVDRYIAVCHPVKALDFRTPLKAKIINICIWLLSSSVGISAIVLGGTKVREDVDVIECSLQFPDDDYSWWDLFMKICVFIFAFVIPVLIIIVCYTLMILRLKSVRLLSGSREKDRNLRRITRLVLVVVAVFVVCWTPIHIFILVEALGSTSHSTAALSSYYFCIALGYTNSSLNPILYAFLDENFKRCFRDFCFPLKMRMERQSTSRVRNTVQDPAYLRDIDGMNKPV
Text: KOR cAMP Antagonist Assay

[4] = target: T1, mu opioid receptor (MOR); test: MOR cAMP agonist assay
[5] = membranes of CHO cells over-expressing MOR, SPA beads, read-out: MOR GTPγS EC50
[6] = kOR cAMP IC50, CHO-K1 cells expressing kOR
[7] = read-out: mOR cAMP EC50, CHO-K1 cells stably expressing mOR, cAMP levels

T1 sequence (P35372 whole entry): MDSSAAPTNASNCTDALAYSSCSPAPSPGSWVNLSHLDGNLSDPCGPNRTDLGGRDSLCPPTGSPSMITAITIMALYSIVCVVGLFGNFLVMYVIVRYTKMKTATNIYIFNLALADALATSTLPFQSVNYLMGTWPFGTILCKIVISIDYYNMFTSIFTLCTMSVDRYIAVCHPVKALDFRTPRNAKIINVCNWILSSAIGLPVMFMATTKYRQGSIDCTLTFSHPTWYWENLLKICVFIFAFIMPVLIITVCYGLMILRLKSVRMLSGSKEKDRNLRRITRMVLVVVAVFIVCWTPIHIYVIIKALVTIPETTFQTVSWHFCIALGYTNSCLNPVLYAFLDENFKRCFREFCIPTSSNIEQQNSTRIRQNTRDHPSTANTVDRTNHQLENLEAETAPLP

| Structure (SMILES) | EC50 [1, 5] [nM] | IC50 [2] [nM] | IC50 [3, 6] [nM] | other results |
| --- | --- | --- | --- | --- |
| CC(CC(=O)NC[C@H](Cc1ccc2c(c1)CC(=O)N2)N(C)C)c1ccccc1 (stereo in doubt) [Compound A-23, (S)—N—((S)-2-(dimethylamino)-3-(2-oxoindolin-5-yl)propyl)-3-phenylbutanamide] | < 100 |  |  | IC50 ([2]; read-out: MOR cAMP IC50, CHO-K1 cells expressing mOR, after activation with DAMGO at the EC80): < 100 nM |
| C[C@H](CC(=O)NC[C@H](Cc1ccc2c(c1)CC(=O)N2)N(C)C)c1ccccc1 [Compound A-22, (R)—N—((S)-2-(dimethylamino)-3-(2-oxoindolin-5-yl)propyl)-3-phenylbutanamide] | < 100 | < 100 |  |  |
| CN(C)[C@H](CNC(=O)[C@@H]1C[C@]1(C)c1ccccc1)Cc1ccc(O)c(F)c1 [Compound B-30, (1R,2S)—N—((S)-2-(dimethylamino)-3-(3-fluoro-4-hydroxyphenyl)propyl)-2-methyl-2-phenylcyclopropane-1-carboxamide] |  | < 100 | < 100 |  |
| Cc1cc(C[C@@H](CNC(=O)[C@@H]2C[C@]2(C)c2ccccc2)N(C)C)cc(C)c1O [Compound B-36, (1R,2S)—N—((S)-2-(dimethylamino)-3-(4-hydroxy-3,5-dimethylphenyl)propyl)-2-methyl-2-phenylcyclopropane-1-carboxamide] |  | < 100 | < 100 |  |
| Cc1cc(O)cc(C)c1C[C@@H](CNC(=O)[C@@H]1C[C@]1(C)c1ccccc1)N(C)C [Compound B-47, (1R,2S)—N—((S)-2-(dimethylamino)-3-(4-hydroxy-2,6-dimethylphenyl)-propyl)-2-methyl-2-phenylcyclopropane-1-carboxamide] |  | < 100 |  | EC50 [4]: < 100 nM |
| CN(C)[C@H](CNC(=O)[C@@H]1C[C@]1(C)c1ccccc1)Cc1ccc2[nH]c(=O)oc2c1 [Compound B-49, (1R,2S)—N—((S)-2-(dimethylamino)-3-(2-oxo-2,3-dihydrobenzo[d]oxazol-6-yl)propyl)-2-methyl-2-phenylcyclopropane-1-carboxamide] |  |  | > 1000 | EC50 [4]: < 100 nM |
| CN(C)[C@H](CNC(=O)[C@@H]1C[C@]1(C)c1ccccc1)Cc1cc2cn[nH]c2cc1Cl [Compound B-54, (1R,2S)—N—((S)-3-(6-chloro-2H-indazol-5-yl)-2-(dimethylamino)propyl)-2-methyl-2-phenylcyclopropane-1-carboxamide] |  |  | 100 to 1000 | EC50 [4]: < 100 nM |
| CN(C)[C@H](CNC(=O)[C@@H]1C[C@]1(C)c1ccccc1)Cc1ccc(O)c(Cl)c1 [Compound B-55, (1R,2S)—N—((S)-3-(3-chloro-4-hydroxyphenyl)-2-(dimethylamino)-propyl)-2-methyl-2-phenylcyclopropane-1-carboxamide] |  | < 100 | < 100 |  |
| CN(C)[C@H](CNC(=O)[C@H]1C[C@@]1(C)c1ccccc1)Cc1ccc(O)cc1 [Compound B-58, (1S,2R)—N—((S)-2-(dimethylamino)-3-(4-hydroxyphenyl)propyl)-2-methyl-2-phenylcyclopropane-1-carboxamide] |  |  |  | IC50 ([3]; read-out: kOR cAMP IC50, CHO-K1 cells expressing kOR): > 1000 nM; EC50 [4, 7]: 100 to 1000 nM |
| CN(C)[C@H](CNC(=O)[C@@H]1C[C@@]1(C)c1ccccc1)Cc1ccc(C(N)=O)cc1Cl [Compound B-60, 3-chloro-4-((S)-2-(dimethylamino)-3-((1R,2R)-2-methyl-2-phenylcyclopropane-1-carboxamido)propyl)benzamide] |  |  | < 100 | EC50 [4, 7]: < 100 nM |
| CN(C)[C@H](CNC(=O)C1CC1(C)c1ccccc1)Cc1ccc(C(N)=O)cc1 (stereo partly drawn) [Compound B-61, 4-((2S)-2-(dimethylamino)-3-(2-methyl-2-phenylcyclopropane-1-carboxamido)propyl)benzamide] |  |  | > 1000 | EC50 [4]: < 100 nM |
| CN(C)[C@H](CNC(=O)[C@@H]1C[C@@]1(C)c1ccccc1)Cc1ccc(O)cc1 [Compound B-62, (1R,2R)—N—((S)-2-(dimethylamino)-3-(4-hydroxyphenyl)propyl)-2-methyl-2-phenylcyclopropane-1-carboxamide] |  |  | 100 to 1000 | EC50 [4]: < 100 nM |
| CN(C)[C@H](CNC(=O)c1cc(F)c(Cl)c(F)c1)Cc1ccc(O)cc1Cl [Compound C-1] |  | < 100 |  |  |
| Cc1ccc(C(=O)NC[C@H](Cc2ccc(O)cc2Cl)N(C)C)cc1C [Compound C-2, (S)—N-(3-(2-Chloro-4-hydroxyphenyl)-2-(dimethylamino)propyl)-3,4-dimethylbenzenamide] |  | < 100 |  |  |
| CN(C)[C@H](CNC(=O)c1ccc(Cl)c(Cl)c1)Cc1ccc(O)cc1Cl [Compound C-7, (S)-3,4-Dichloro-N-(3-(2-chloro-4-hydroxyphenyl)-2-(dimethylamino)propyl)benzamide] |  | < 100 |  |  |
| CN(C)[C@H](CNC(=O)c1ccc(Br)c(Cl)c1)Cc1ccc(O)cc1Cl [Compound C-8, (S)-4-bromo-3-chloro-N-(3-(2-chloro-4-hydroxyphenyl)-2-(dimethylamino)propyl)benzamide] |  | < 100 |  |  |
| CN(C)[C@H](CNC(=O)c1cccc(Cl)c1)Cc1ccc(O)cc1Cl [Compound C-22] | < 100 | > 1000 | 100 to 1000 |  |
| Cc1cc(O)cc(C)c1C[C@@H](CNC(=O)c1ccc(Cl)c(Cl)c1)N(C)C [Compound C-24, (S)-3,4-dichloro-N-(2-(dimethylamino)-3-(4-hydroxy-2,6-dimethylphenyl)propyl)benzamide] | < 100 | < 100 | < 100 |  |
| Cc1cc(O)cc(C)c1C[C@@H](CNC(=O)c1ccc(C(F)(F)F)c(Cl)c1)N(C)C [Compound C-26] | < 100 | < 100 |  |  |

| Structure (SMILES) | EC50 [1, 5] [nM] | IC50 [2] [nM] | IC50 [3, 6] [nM] | other results |
| --- | --- | --- | --- | --- |
| Cc1cc(O)cc(C)c1C[C@@H](CNC(=O)c1ccc(Cl)c(C(F)(F)F)c1)N(C)C [Compound C-27] | < 100 | < 100 |  |  |
| Cc1ccc(C(=O)NC[C@H](Cc2c(C)cc(O)cc2C)N(C)C)cc1C [Compound C-28] | < 100 | < 100 |  |  |
| Cc1cc(O)cc(C)c1C[C@@H](CNC(=O)c1ccc(C(F)(F)F)c(F)c1)N(C)C [Compound C-30] | < 100 | < 100 |  |  |
| Cc1cc(O)cc(C)c1C[C@@H](CNC(=O)c1ccc2occc2c1)N(C)C [Compound C-31] | < 100 | < 100 |  |  |
| Cc1cc(O)cc(C)c1C[C@@H](CNC(=O)c1ccc(C(F)(F)F)cc1)N(C)C [Compound C-32, (S)—N-(2-(dimethylamino)-3-(4-hydroxy-2,6-dimethylphenyl)propyl)-4-(trifluoromethyl)benzamide] | < 100 | 100 to 1000 |  |  |
| Cc1cc(O)cc(C)c1C[C@@H](CNC(=O)c1ccc2ccccc2c1)N(C)C [Compound C-33] | < 100 | < 100 |  |  |
| Cc1cc(O)cc(C)c1C[C@@H](CNC(=O)c1nccc2ccccc12)N(C)C [Compound C-34] | < 100 | < 100 |  |  |
| Cc1cc(O)cc(C)c1C[C@@H](CNC(=O)c1cc2ccccc2cn1)N(C)C [Compound C-35] | < 100 | < 100 |  |  |
| CNC(=O)c1ccc(C[C@@H](CNC(=O)c2ccc(Cl)c(Cl)c2)N(C)C)cc1F [Compound C-39] | < 100 | < 100 |  |  |
| CNC(=O)c1ccc(C[C@@H](CNC(=O)c2ccc(C)cc2C)N(C)C)cc1F [Compound C-40] | < 100 | < 100 | > 1000 |  |
| CN1Cc2cc(O)ccc2C[C@H]1CNC(=O)c1ccc(Cl)c(Cl)c1 [Compound C-54] | < 100 | < 100 |  |  |
| CC(=O)Oc1cc(C)c(C[C@@H](CNC(=O)c2ccc(Cl)c(Cl)c2)N(C)C)c(C)c1 [Compound C-56, (S)-4-(3-(3,4-dichlorobenzamido)-2-(dimethylamino)propyl)-3,5-dimethylphenyl acetate] |  | < 100 |  |  |
| Cc1cc(O)cc(C)c1C[C@@H](CNC(=O)c1cc(Cl)c(Cl)cc1F)N(C)C [Compound C-57, (S)-4,5-dichloro-N-(2-(dimethylamino)-3-(4-hydroxy-2,6-dimethylphenyl)propyl)-2-fluorobenzamide] | < 100 | < 100 |  |  |
| O=C(NC[C@H](Cc1ccc2[nH]ncc2c1)N1CCCC1)c1ccc(Cl)c(Cl)c1 [Compound C-59, (S)—N-(3-(1H-indazol-5-yl)-2-(pyrrolidin-1-yl)propyl)-3,4-dichlorobenzamide] | 100 to 1000 | < 100 |  |  |
| O=C(NC[C@@H]1Cc2ccc(O)cc2CN1)c1ccc(Cl)c(Cl)c1 [Compound C-60, (S)-3,4-dichloro-N-((7-hydroxy-1,2,3,4-tetrahydroisoquinolin-3-yl)methyl)benzamide] | < 100 | < 100 |  |  |
| CN(C)[C@H](CNC(=O)c1ccc(Cl)c(Cl)c1)Cc1ccc(O)c(Cl)c1 [Compound C-61, (S)-3,4-dichloro-N-(3-(3-chloro-4-hydroxyphenyl)-2-(dimethylamino)propyl)benzamide] | < 100 | < 100 |  |  |
| CCN(CC)[C@H](CNC(=O)c1ccc(Cl)c(Cl)c1)Cc1ccc2[nH]ncc2c1 [Compound C-64] | < 100 | < 100 |  |  |
| CN(C)[C@H](CNC(=O)c1ccccc1-c1ccccc1)Cc1ccc(O)cc1 [Compound C-66, (S)—N-(2-(dimethylamino)-3-(4-hydroxyphenyl)propyl)-[1,1′-biphenyl]-2-carboxamide] |  |  | 100 to 1000 | EC50 [1]: > 1000 nM; IC50 ([2]; CHO-K1 cells expressing mOR, after activation with DAMGO at the EC80, read-out: MOR cAMP IC50): > 1000 nM |
